# Test results from patent US7879370B2, “Composition of which chief ingredient is polysaccharides having an immunoregulatory function” (Merican Corporation, priority 2006, dated 2011).
# Type: in vivo, BALB/c mice
# Conditions: mouse antiallergy test, days 0 to 22; FIG. 9
# Description: Body weight was determined with a scale on days 0, 7, 14, and 22. General symptoms were observed daily from day 0 to day 22. Blood plasma analysis was conducted by measuring the OVA-specific IgE level using plasma obtained by centrifuging blood drawn from the ophthalmic vein on days 0, 14, 18, and 22.
compound,measurement,value
O=P1(N(CCCl)CCCl)NCCCO1 (stereo not shown) [cyclophosphamide],change in body weights,reduction in the body weight
